ChEMBL document CHEMBL1926642, “Relevance of the C-5 position to schweinfurthin induced cytotoxicity” (2011)

Experiments:
Format in all cases: functional
CCRF-CEM = experiment: Growth inhibition of human CCRF-CEM cells after 48 hrs by sulforhodamine B assay
K562 = experiment: Growth inhibition of human K562 cells after 48 hrs by sulforhodamine B assay; conditions: K562, 48 h
RPMI-8226 = experiment: Growth inhibition of human RPMI8226 cells after 48 hrs by sulforhodamine B assay; conditions: RPMI-8226, 48 h
NCI-H23 = experiment: Growth inhibition of human NCI-H23 cells after 48 hrs by sulforhodamine B assay; conditions: NCI-H23, 48 h
NCI-H322M = experiment: Growth inhibition of human NCI-H322M cells after 48 hrs by sulforhodamine B assay
A549 = experiment: Growth inhibition of human A549 cells after 48 hrs by sulforhodamine B assay; conditions: A549, 48 h
NCI-H460 = experiment: Growth inhibition of human NCI-H460 cells after 48 hrs by sulforhodamine B assay; conditions: NCI-H460, 48 h
HCT-116 = experiment: Growth inhibition of human HCT116 cells after 48 hrs by sulforhodamine B assay; conditions: HCT-116, 48 h
HCT-15 = experiment: Growth inhibition of human HCT15 cells after 48 hrs by sulforhodamine B assay; conditions: HCT-15, 48 h
HT-29 = experiment: Growth inhibition of human HT-29 cells after 48 hrs by sulforhodamine B assay; conditions: HT-29, 48 h
KM12 = experiment: Growth inhibition of human KM12 cells after 48 hrs by sulforhodamine B assay; conditions: KM12, 48 h
SW-620 = experiment: Growth inhibition of human SW620 cells after 48 hrs by sulforhodamine B assay; conditions: SW-620, 48 h
SF-295 = experiment: Growth inhibition of human SF295 cells after 48 hrs by sulforhodamine B assay; conditions: SF-295, 48 h
SF-539 = experiment: Growth inhibition of human SF539 cells after 48 hrs by sulforhodamine B assay; conditions: SF-539, 48 h
SNB-75 = experiment: Growth inhibition of human SNB75 cells after 48 hrs by sulforhodamine B assay; conditions: SNB-75, 48 h
Malme-3M = experiment: Growth inhibition of human MALME-3M cells after 48 hrs by sulforhodamine B assay
M14 = experiment: Growth inhibition of human M14 cells after 48 hrs by sulforhodamine B assay; conditions: M14, 48 h
MDA-MB-435 = experiment: Growth inhibition of human MDA-MB-435 cells after 48 hrs by sulforhodamine B assay; conditions: MDA-MB-435, 48 h
SK-MEL-2 = experiment: Growth inhibition of human SK-MEL-2 cells after 48 hrs by sulforhodamine B assay; conditions: SK-MEL-2, 48 h
UACC-257 = experiment: Growth inhibition of human UACC257 cells after 48 hrs by sulforhodamine B assay; conditions: UACC-257, 48 h
UACC-62 = experiment: Growth inhibition of human UACC62 cells after 48 hrs by sulforhodamine B assay; conditions: UACC-62, 48 h
OVCAR-4 = experiment: Growth inhibition of human OVCAR4 cells after 48 hrs by sulforhodamine B assay; conditions: OVCAR-4, 48 h
OVCAR-5 = experiment: Growth inhibition of human OVCAR5 cells after 48 hrs by sulforhodamine B assay; conditions: OVCAR-5, 48 h
OVCAR-8 = experiment: Growth inhibition of human OVCAR8 cells after 48 hrs by sulforhodamine B assay; conditions: OVCAR-8, 48 h
SK-OV-3 = experiment: Growth inhibition of human SKOV3 cells after 48 hrs by sulforhodamine B assay; conditions: SK-OV-3, 48 h
A498 = experiment: Growth inhibition of human A498 cells after 48 hrs by sulforhodamine B assay; conditions: A498, 48 h
ACHN = experiment: Growth inhibition of human ACHN cells after 48 hrs by sulforhodamine B assay
SN12C = experiment: Growth inhibition of human SN12C cells after 48 hrs by sulforhodamine B assay
UO-31 = experiment: Growth inhibition of human UO31 cells after 48 hrs by sulforhodamine B assay; conditions: UO-31, 48 h
PC-3 = experiment: Growth inhibition of human PC3 cells after 48 hrs by sulforhodamine B assay; conditions: PC-3, 48 h
T47D = experiment: Growth inhibition of human T47D cells after 48 hrs by sulforhodamine B assay
MDA-MB-468 = experiment: Growth inhibition of human MDA-MB-468 cells after 48 hrs by sulforhodamine B assay; conditions: MDA-MB-468, 48 h

## COc1cc(/C=C/c2cc(O)c3c(c2)C[C@@H]2C(C)(C)[C@H](O)CC[C@@]2(C)O3)cc(O)c1C/C=C(\C)CCC=C(C)C
CCRF-CEM
  GI50: 0.12 µM
  LC50: 100 µM
CCRF-CEM; read-out: pTGI (converted)
  TGI: 4.37 µM
K562
  GI50: 0.263 µM
  LC50: 100 µM
K562; read-out: pTGI (converted)
  TGI: 6.92 µM
RPMI-8226
  GI50: 0.0105 µM
  LC50: 100 µM
RPMI-8226; read-out: pTGI (converted)
  TGI: 0.347 µM
NCI-H23
  GI50: 1.51 µM
  LC50: 26.3 µM
NCI-H23; read-out: pTGI (converted)
  TGI: 4.47 µM
NCI-H322M
  GI50: 3.39 µM
  LC50: 43.7 µM
NCI-H322M; read-out: pTGI (converted)
  TGI: 14.1 µM
A549
  LC50: 40.7 µM
A549; read-out: GI50
  GI50: 0.72 µM
A549; read-out: pGI50 (converted)
  GI50: 0.955 µM
A549; read-out: pTGI (converted)
  TGI: 10.7 µM
NCI-H460
  GI50: 0.339 µM
  LC50 (concentration killing 50% of cells): 64.6 µM
NCI-H460; read-out: pTGI (converted)
  TGI: 9.12 µM
HCT-116
  GI50: 0.603 µM
  LC50: 6.31 µM
HCT-116; read-out: pTGI (converted)
  TGI: 2.34 µM
HCT-15
  GI50: 1.12 µM
  LC50: 7.94 µM
HCT-15; read-out: pTGI (converted)
  TGI: 2.95 µM
HT-29
  GI50: 1.23 µM
  LC50 (concentration killing 50% of cells): 27.5 µM
HT-29; read-out: pTGI (converted)
  TGI: 4.9 µM
KM12
  GI50: 1.17 µM
  LC50: 7.08 µM
KM12; read-out: pTGI (converted)
  TGI: 2.88 µM
SW-620
  GI50: 0.331 µM
  LC50: 5.13 µM
SW-620; read-out: pTGI (converted)
  TGI: 1.58 µM
SF-295
  LC50: 26.9 µM
SF-295; read-out: GI50
  GI50: 0.022 µM
SF-295; read-out: pGI50 (converted)
  GI50: 0.024 µM
SF-295; read-out: pTGI (converted)
  TGI: 0.195 µM
SF-539
  GI50: 0.0525 µM
  LC50: 6.92 µM
SF-539; read-out: pTGI (converted)
  TGI: 1.66 µM
SNB-75
  GI50: 0.123 µM
  LC50: 33.9 µM
SNB-75; read-out: pTGI (converted)
  TGI: 6.31 µM
Malme-3M
  GI50: 1.95 µM
  LC50: 30.9 µM
Malme-3M; read-out: pTGI (converted)
  TGI: 5.13 µM
M14
  GI50: 1.1 µM
  LC50: 18.6 µM
M14; read-out: pTGI (converted)
  TGI: 3.47 µM
MDA-MB-435
  GI50: 0.794 µM
  LC50: 34.7 µM
MDA-MB-435; read-out: pTGI (converted)
  TGI: 5.01 µM
SK-MEL-2
  GI50: 6.92 µM
  LC50: 56.2 µM
SK-MEL-2; read-out: pTGI (converted)
  TGI: 22.4 µM
UACC-257
  GI50: 7.59 µM
  LC50: 61.7 µM
UACC-257; read-out: pTGI (converted)
  TGI: 23.4 µM
UACC-62
  GI50: 0.204 µM
  LC50 (50% lethal concentration): 7.41 µM
UACC-62; read-out: pTGI (converted)
  TGI: 0.794 µM
OVCAR-4
  GI50: 2.63 µM
  LC50: 63.1 µM
OVCAR-4; read-out: pTGI (converted)
  TGI: 19.1 µM
OVCAR-5
  GI50: 2.51 µM
  LC50: 45.7 µM
OVCAR-5; read-out: pTGI (converted)
  TGI: 13.2 µM
OVCAR-8
  GI50: 2.82 µM
  LC50: 51.3 µM
OVCAR-8; read-out: pTGI (converted)
  TGI: 12.6 µM
SK-OV-3
  GI50: 1.38 µM
  LC50: 38 µM
SK-OV-3; read-out: pTGI (converted)
  TGI: 14.8 µM
A498
  GI50: 0.117 µM
  LC50: 12 µM
A498; read-out: pTGI (converted)
  TGI: 2.45 µM
ACHN
  GI50: 1.78 µM
  LC50: 36.3 µM
ACHN; read-out: pTGI (converted)
  TGI: 12 µM
SN12C
  GI50: 1.51 µM
  LC50: 8.51 µM
SN12C; read-out: pTGI (converted)
  TGI: 3.63 µM
UO-31
  GI50: 0.178 µM
  LC50: 37.2 µM
UO-31; read-out: pTGI (converted)
  TGI: 11.5 µM
PC-3
  GI50: 0.372 µM
PC-3; read-out: pLC50 (the source's name) (converted)
  CC50: 41.7 µM
PC-3; read-out: pTGI (converted)
  TGI: 5.25 µM
T47D
  GI50: 1.41 µM
  LC50: 39.8 µM
T47D; read-out: pTGI (converted)
  TGI: 7.08 µM
MDA-MB-468
  GI50: 1.1 µM
  LC50: 9.12 µM
MDA-MB-468; read-out: pTGI (converted)
  TGI: 3.16 µM
